Data: ChEMBL document CHEMBL1158296, “(Hydroxymethyl)acylfulvene: an illudin derivative with superior antitumor properties” (J Nat Prod, 1996)
pIC50: −log10 of the molar value. The source made the active and inactive calls. The rule behind the calls is not given here.

Experiments:
HL-60 = experiment: Cytotoxicity against human HL60 cells after 48 hrs by trypan blue exclusion method; type: functional, cell-based; details: for pIC50: Homo sapiens, HL-60, 48 h, read-out: IC50
[1] = Antitumor activity against human MV522 cells xenografted BALB/c nu/nu mouse assessed as increase in life span at 10 mg/kg, iv administered three times per week for 3 weeks; type: functional
MV522 = experiment: Antitumor activity against human MV522 cells xenografted BALB/c nu/nu mouse assessed as induction of tumor regression at 10 mg/kg, iv administered three times per week for 3 weeks; type: functional, organism-based; parameters: dose 10 mg/kg

Row | Compound | pIC50 (HL-60) | further results
1 | COc1ccc(CC2=C(C)C=C3C(=O)[C@](C)(O)C4(CC4)C(C)=C32)cc1 | 5.98 | –
2 | CC1=C(CSc2ccc(C)cc2)C2=C(C)C3(CC3)[C@@](C)(O)C(=O)C2=C1 | – | IC50 (HL-60; hl-60): ND(Insoluble)
3 | CC1=C(Cc2ccc(O)cc2)C2=C(C)C3(CC3)[C@@](C)(O)C(=O)C2=C1 | 6.42 | –
4 | CC1=CC2=C(C)C3(CC3)[C@@](C)(O)C(=O)C2=C1 [ACYLFULVENE] | 6.38 | –
5 | CC1=C2C(=O)C(C)(C)C=C2C(=O)[C@](C)(O)C12CC2 [DEHYDROILLUDIN M] | 6.53 | –
6 | CC1=C(CO)C2=C(C)C3(CC3)[C@@](C)(O)C(=O)C2=C1 [IROFULVEN] | 7.14 | Activity [1]: 150%; Activity (MV522): Active
